IC50 data for 101 compounds are collected here from PubChem BioAssay AID849 (SRMLSC, 2007).

Activity calls are given as the source filed them. No rule for the calls is given here.

This assay deals with Saccharomyces cerevisiae lifespan shortening, growth inhibition. As to the kind of experiment: Saccharomyces cerevisiae growth inhibition potency – dose response (AID 849).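 Also: yeast growth read as optical density after two days at 30 degrees C.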
For orientation: IC50 means the midpoint of a concentration-inhibition curve. `Cc1cccc(N=Nc2ccc(O)c3ncccc23)c1`: the IC50 was 34.8 µM.

For the compound `COc1cccc2c(=O)c3c(cnn3C)n(C)c12`, the IC50 was 11.7 µM.

In the case of `Cc1ccc(OC(=S)Nc2ccc(O)cc2)cc1`, the IC50 is 14 µM.

Turning to `O=C1C=C(c2ccc(Cl)cc2)C(=O)N1Nc1ccccc1`, the IC50 is 4.66 µM.

Regarding `Cc1nn(-c2ccccc2)c2sc(C(=O)O)cc12`, the IC50 is 47.2 µM.

As for `C(=C\c1nc(N2CCCCCC2)c2ccccc2n1)/c1ccccc1`, the IC50 is 42.1 µM.

As to `O=C(Nc1cccc(C(F)(F)F)c1)C(Sc1cccc[n+]1[O-])c1ccccc1` (stereo unspecified), the IC50 was 21.5 µM.

For `CCSc1nnc(NC(=O)c2ccccn2)s1`, the IC50 was 9.84 µM.

For `Cc1cc(N2CCN(C(=O)c3ccco3)CC2)n2ncc(-c3ccccc3)c2n1`, the IC50 was > 100 µM (inactive).

For `O=C(COc1ccc(Cl)cc1)NC1=NN(c2ccccc2)C(=O)C1`, the IC50 was > 100 µM (inactive).

`O=C(C1=C(O)/C(=C/c2ccc(O)cc2)CCC1)C(F)(F)F`: the IC50 was > 100 µM (inactive).

Regarding `O=Nc1c(O)n(Cc2ccc(Cl)c(Cl)c2)c2ccccc12`, the IC50 is > 100 µM (inactive).

On to `Cc1cc(C(=O)COC(=O)c2ccc[nH]c2=O)c(C)n1-c1ccc(F)cc1`, for which the IC50 was 43 µM.

`Cc1ccc(-c2nc3sc(C(N)=O)c(N)c3c3c2CCCC3)cc1`: the IC50 was > 100 µM (inactive).

As for `O=c1cc(-c2ccncc2)oc2ccccc12`, the IC50 is 51.1 µM.

As for `CCCCCCN1N=C(C)C(C(=O)c2ccc(Cl)cc2)C1=O` (stereo unspecified), the IC50 was 16.4 µM.

Regarding `CCc1ccc2c(c1)C1(NN=C(c3cccc4ccccc34)S1)C(=O)N2` (stereo unspecified), the IC50 is 41.3 µM.

With `COc1ccc(-c2cc(C(=O)N3CCN(c4ncccn4)CC3)c3ccccc3n2)c(OC)c1`, the IC50 is 49.8 µM.

As for `Cc1ccc2nc(-c3ccc(NS(=O)(=O)c4ccc(F)c(F)c4)cc3)sc2c1`, the IC50 was > 100 µM (inactive).

Turning to `CCOC(=O)c1c(N)sc2c(OC)c(Br)ccc12`, the IC50 was > 100 µM (inactive).

For the compound `CC1=C(C)/C(=N\OS(=O)(=O)c2ccc(C)cc2)C=CC1=O`, the IC50 is 12.5 µM.

As for `CN1C(=O)/C(=N/OC(=O)c2ccccc2)c2ccccc21`, the IC50 was > 100 µM (inactive).

In the case of `S=C(NCc1ccc(Cl)cc1)NC12CC3CC(CC(C3)C1)C2`, the IC50 was > 100 µM (inactive).

Regarding `N/C(Cc1ccc(Cl)cc1)=N\OC(=O)c1ccccc1`, the IC50 is 27.1 µM.

`O=C(O)CCC(=O)N1CCN(c2nc(-c3ccccc3Cl)c3cc(Br)ccc3n2)CC1`: the IC50 was 29.3 µM.

As for `CCOC(=O)C1=Nc2ccccc2C1=[N+]=[N-]`, the IC50 was 5.58 µM.

As to `COc1ccccc1N1CCN(C(CNC(=O)c2ccco2)c2cccnc2)CC1` (stereo unspecified), the IC50 is > 100 µM (inactive).

Take `CN(c1ccc(O)cc1)c1nc(-c2ccccc2)cs1`: the IC50 was > 100 µM (inactive).

As for `CS(=O)(=O)N1CCN(C(=O)c2ccccc2F)CC1`, the IC50 is > 100 µM (inactive).

On to `Cc1cccc(Nc2nc(-c3ccccn3)cs2)n1`, for which the IC50 is 20.3 µM.

As to `Cc1ccc(C(C[N+](=O)[O-])n2nc(C)cc2C)cc1` (stereo unspecified), the IC50 is 19.1 µM.

As to `Cc1cc(OCc2ccc(C(=O)NN=C3CCCC3)cc2)ccc1Cl`, the IC50 is 43.6 µM.

For the compound `CCCCC(=O)NNC(=S)NC(=O)CCC`, the IC50 was 32.3 µM.

On to `N#CCSc1nc2ccccc2c2nc3ccccc3n12`, for which the half-maximal inhibitory concentration (IC50) was 29.3 µM.

For the compound `Cn1cccc1Cc1nnc(SCC(=O)Nc2nccs2)n1CCc1ccccc1`, the IC50 is > 100 µM (inactive).

`N/C(Cc1ccc(Cl)cc1Cl)=N\OC(=O)c1cccs1`: the IC50 was 0.78 µM.

Turning to `Cc1ncc(CC(=O)n2cc(C(=O)c3cc(Cl)ccc3O)cn2)s1`, the IC50 was 12 µM.

As to `Cc1ccc(/C(N)=N/OC(=O)c2ccc(Cl)cc2Cl)cc1`, the IC50 was 18.3 µM.

For `O=C(OCn1ncc(Cl)c(Cl)c1=O)c1cccc(C(F)(F)F)c1`, the IC50 was > 100 µM (inactive).

`CCCC1COC(Cn2cncn2)(c2ccc(Cl)cc2Cl)O1` (stereo unspecified): the IC50 is 0.274 µM.

For `Cc1cccc(C(=O)O/N=C/c2c(N3CCOCC3)n(C)c3ccccc23)c1`, the IC50 is 35.3 µM.

For `CCCn1c(C(C)NC(C)=O)nc2ccccc21` (stereo unspecified), the IC50 is > 100 µM (inactive).

As for `CC(=O)NC1C(=O)N=C(SCC(=O)NC2CCCCC2)NC1=O` (stereo unspecified), the IC50 is > 100 µM (inactive).

As to `CC(C)(C)c1ccc(C(=O)NC(=S)NNC(=O)c2cccs2)cc1`, the IC50 was 42.2 µM.

Regarding `CC1/C(=N/O)CC(c2ccccc2)N(C)C1c1ccccc1` (stereo unspecified), the IC50 is > 100 µM (inactive).

For `O=C(N/N=C/c1cc2c3c(c1O)CCCN3CCC2)c1ccccc1O`, the IC50 was 37.5 µM.

In the case of `Cc1ccc(NC(=O)ON=C2CCCC2)cc1`, the IC50 is 9.19 µM.

For `CN(c1ccccc1)c1ccc(/C=C/[N+](=O)[O-])cc1`, the IC50 was 49.2 µM.

`O=C(/C=C/N1CCOCC1)c1ccc(-c2ccccc2)cc1`: the IC50 was 11.5 µM.

Regarding `COc1ccccc1OCCCc1c(C)n[nH]c1C`, the IC50 is 8.78 µM.

In the case of `COc1ccc(OCc2nnc3n2N=C(c2ccc(OC)cc2)CS3)cc1`, the IC50 was > 100 µM (inactive).

Turning to `O=C(CCSc1nnc(-c2ccncc2)o1)Nc1ccc(Cl)cc1`, the IC50 is 37.7 µM.

Take `N/C(=N\OC(=O)c1ccc(Cl)cc1Cl)c1ccccc1`: the IC50 was > 100 µM (inactive).

For the compound `O=S(=O)(Nc1ccc(-c2nc3ccccc3o2)cc1)c1ccccc1`, the IC50 was > 100 µM (inactive).

Regarding `CC(C)(C)n1nc(-c2ccc(Cl)cc2)c2c(N)ncnc21`, the IC50 is 20.7 µM.

Regarding `CC(NC(=O)Nc1ccc(Cl)cc1)C(c1cccs1)N1CCOCC1` (stereo unspecified), the IC50 is > 100 µM (inactive).

With `CN1CCN(CC(=O)N2CCn3c4c(c5cc(C6CCCCC6)ccc53)CCCC42)CC1` (stereo unspecified), the IC50 is > 100 µM (inactive).

Consider `Cc1ccc(N=Cc2cccc(O)c2O)c(C)c1`, for which the IC50 is 13.1 µM.

Turning to `CCn1ncc(C2=NOC(C(=O)Nc3c(C)n(C)n(-c4ccccc4)c3=O)C2)c1C` (stereo unspecified), the IC50 was > 100 µM (inactive).

On to `OCCN(CCO)CC(O)COc1ccc(C23CC4CC(CC(C4)C2)C3)cc1` (stereo unspecified), for which the IC50 is 35.7 µM.

As to `Cc1ccc(O)c(-c2cc(-c3ccccc3C)[nH]n2)c1`, the IC50 was 24.3 µM.

`Nc1nsc2ccccc12`: the 50% inhibitory concentration (IC50) is 24.3 µM.

In the case of `CCC(=O)c1c(O)n(C2CCCCCC2)c(=O)[nH]c1=O`, the IC50 is 23.4 µM.

Consider `CCCc1ccc(OCC(=O)NNC(=S)NC(=O)c2ccco2)cc1`, for which the IC50 is 15.1 µM.

Regarding `Oc1c(C(Nc2nc3ccccc3s2)c2ccco2)ccc2cccnc12` (stereo unspecified), the IC50 was > 100 µM (inactive).

Regarding `Cn1cccc1C(=O)Nc1nc(-c2ccccn2)cs1`, the IC50 was 33.7 µM.

On to `Clc1ccc(N/N=C/c2cccnc2)cc1`, for which the IC50 is > 100 µM (inactive).

`CC(Oc1ccc2ccccc2c1)C(=O)NNC(=S)NC(=O)c1ccco1` (stereo unspecified): the IC50 is 17.7 µM.

With `O=[N+]([O-])c1ccccc1-c1cc(-c2cc(Cl)ccc2O)n[nH]1`, the IC50 is > 100 µM (inactive).

`COc1cc(CNCCN2CCOCC2)ccc1OCc1cccc(Cl)c1`: the IC50 was > 100 µM (inactive).

Turning to `CC1=NNC(=O)/C1=C\c1cn(-c2ccccc2)nc1-c1cccs1`, the IC50 was 36.1 µM.

In the case of `CCCCCCCCCCCCCCCC[n+]1cccc(C(=O)N(CC)CC)c1`, the IC50 was 3.69 µM.

Regarding `N/C(Cc1ccc(Cl)cc1)=N\OC(=O)c1cccc2ccccc12`, the IC50 was 41 µM.

For the compound `O=C(Nc1nc(-c2ccccn2)cs1)c1ccc(Cl)s1`, the IC50 was 2.85 µM.

As to `Cc1ccc(C(=O)Oc2ccc(Cl)c3cccnc23)cc1[N+](=O)[O-]`, the IC50 was 47.4 µM.

On to `C=CCSc1nnc2nc3c(nn12)c1cc(C)ccc1n3CC=C`, for which the IC50 is > 100 µM (inactive).

On to `CC1(C)CC(=NOC(=O)c2ccccc2)CC(C)(C)N1O`, for which the IC50 is 8.22 µM.

Take `Oc1ccc(/C=N/N=C(c2ccccc2)c2ccccc2)c(O)c1O`: the IC50 is 23.7 µM.

For `COc1ccc(NC(=O)CC2SC(=Nc3ccccc3)NC2=O)c(OC)c1` (stereo unspecified), the IC50 is > 100 µM (inactive).

Consider `COc1ccc(-c2cc(=O)n(-c3nc4ccccc4[nH]3)[nH]2)cc1`, for which the IC50 was 12.5 µM.

Regarding `CCN(CC)S(=O)(=O)c1ccc(NC(=O)CSc2cccc[n+]2[O-])cc1`, the half-inhibitory concentration (IC50) is 24.2 µM.

As to `O=c1cc(-c2ccccc2)n(S(=O)(=O)c2ccccc2)o1`, the IC50 was 39.8 µM.

Regarding `Cc1ccc(C(NC(=O)C(C)C)c2cc([N+](=O)[O-])c3cccnc3c2O)cc1` (stereo unspecified), the IC50 was 11.4 µM.

For the compound `Cc1nc2cc3ccccc3cc2c(=O)[nH]1`, the IC50 was > 100 µM (inactive).

For `O=C(Cc1ccccc1)NCCc1cn2ccsc2n1`, the IC50 was > 100 µM (inactive).

Take `Cc1cc(-c2ccco2)c(C#N)c2nc3ccccc3n12`: the IC50 was 5.77 µM.

With `Cc1ccc(N/N=C(\C#N)C(N)=S)c(C)c1`, the IC50 was > 100 µM (inactive).

In the case of `CCOC(=O)C1CCCCN1C(=O)CCc1c(C)nc2cc(-c3ccccc3)nn2c1C` (stereo unspecified), the IC50 was > 100 µM (inactive).

In the case of `COC(=O)Cn1c2ccc(C)cc2c2nc(C)sc21`, the IC50 is > 100 µM (inactive).

Regarding `Cc1cccc(/C=C/C(=O)c2cc(Br)ccc(=O)c2O)c1`, the IC50 was 8.97 µM.

`Cc1ccc(C(=O)CSC2=NC(N)=C(C#N)C3(CCCCC3)C2C(N)=O)cc1` (stereo unspecified): the IC50 was > 100 µM (inactive).

With `C=C(C)COc1ccc(-c2[nH]ncc2-c2ccccc2OC)c(O)c1`, the IC50 was > 100 µM (inactive).

With `Fc1ccc(Br)cc1C1C=C(c2cccnc2)Nc2ncnn21` (stereo unspecified), the IC50 is > 100 µM (inactive).

`c1cncc(-c2nnc(-c3cccnc3)nn2)c1`: the IC50 is 25.9 µM.

For `CCCc1cc(-c2n[nH]c(=S)n2C(C)c2ccccc2)cs1` (stereo unspecified), the IC50 was > 100 µM (inactive).

For the compound `O=c1cc(-c2ccccc2)[nH]n1-c1nc2ccccc2[nH]1`, the IC50 is 12.2 µM.

For `Cc1nc2c(F)c(F)c(C(F)(F)F)c(F)c2[nH]1`, the IC50 was > 100 µM (inactive).

As to `CCOC(=O)c1sc(=S)n(-c2cc(F)ccc2F)c1N`, the IC50 was > 100 µM (inactive).

For `Cc1ccc(Nc2cc(C)nn2-c2nc(C)cc(=O)[nH]2)cc1`, the IC50 is 1.18 µM.

Consider `Cc1ccc(CNC(=O)c2ccc(Cn3nc(C)c(Cl)c3C)o2)cc1`, for which the IC50 is 12.4 µM.

On to `COc1cccc(-n2nnnc2S(C)(=O)=O)c1`, for which the IC50 was 9.54 µM.
